Results: patent US12059422B2 (MEI Pharma, Inc., priority 2011, dated 2024)

Experiments:
Format in all cases: biochemical
PI3K delta = target: T1, PI3K delta (Homo sapiens, UniProt O00329); assay: Luciferase-based luminescence assay (KinaseGlo), PI3K delta enzymatic activity; conditions: for IC50: inhibition of enzymatic activity, KinaseGlo, 25 μM ATP, read-out: IC50 p110δ; for α/δ ratio: ratio of enzymatic IC50 against PI3Kα over IC50 against PI3Kδ
T1 construct: purchased Millipore, Billerica, MA, USA
T1 sequence (O00329 whole entry, species assumed): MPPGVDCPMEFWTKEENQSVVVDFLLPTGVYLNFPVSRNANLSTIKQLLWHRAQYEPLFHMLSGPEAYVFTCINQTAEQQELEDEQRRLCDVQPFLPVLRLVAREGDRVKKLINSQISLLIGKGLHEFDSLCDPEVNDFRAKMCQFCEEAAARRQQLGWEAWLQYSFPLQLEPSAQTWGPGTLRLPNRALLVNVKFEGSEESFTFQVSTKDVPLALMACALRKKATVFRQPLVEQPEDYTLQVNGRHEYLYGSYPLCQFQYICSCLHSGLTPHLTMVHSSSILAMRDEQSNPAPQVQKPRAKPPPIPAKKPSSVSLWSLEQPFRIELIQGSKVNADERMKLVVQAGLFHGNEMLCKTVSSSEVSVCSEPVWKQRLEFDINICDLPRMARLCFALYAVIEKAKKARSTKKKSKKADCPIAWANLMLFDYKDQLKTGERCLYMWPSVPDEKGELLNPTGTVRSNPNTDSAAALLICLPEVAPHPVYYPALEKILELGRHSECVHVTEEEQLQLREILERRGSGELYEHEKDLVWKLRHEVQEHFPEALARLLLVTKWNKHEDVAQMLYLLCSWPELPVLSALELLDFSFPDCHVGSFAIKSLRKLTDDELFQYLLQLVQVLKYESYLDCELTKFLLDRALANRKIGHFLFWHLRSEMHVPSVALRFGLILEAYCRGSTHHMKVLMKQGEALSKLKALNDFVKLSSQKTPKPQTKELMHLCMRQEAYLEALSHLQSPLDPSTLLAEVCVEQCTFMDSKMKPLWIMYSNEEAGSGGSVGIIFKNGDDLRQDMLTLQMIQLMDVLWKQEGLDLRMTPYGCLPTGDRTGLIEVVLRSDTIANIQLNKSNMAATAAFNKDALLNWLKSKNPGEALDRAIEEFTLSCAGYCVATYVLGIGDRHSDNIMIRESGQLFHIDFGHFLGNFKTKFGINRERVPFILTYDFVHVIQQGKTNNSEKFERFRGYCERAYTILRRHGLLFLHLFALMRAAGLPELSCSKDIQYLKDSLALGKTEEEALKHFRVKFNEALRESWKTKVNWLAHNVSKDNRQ
T1 sequence (P27986 whole entry partner, species assumed): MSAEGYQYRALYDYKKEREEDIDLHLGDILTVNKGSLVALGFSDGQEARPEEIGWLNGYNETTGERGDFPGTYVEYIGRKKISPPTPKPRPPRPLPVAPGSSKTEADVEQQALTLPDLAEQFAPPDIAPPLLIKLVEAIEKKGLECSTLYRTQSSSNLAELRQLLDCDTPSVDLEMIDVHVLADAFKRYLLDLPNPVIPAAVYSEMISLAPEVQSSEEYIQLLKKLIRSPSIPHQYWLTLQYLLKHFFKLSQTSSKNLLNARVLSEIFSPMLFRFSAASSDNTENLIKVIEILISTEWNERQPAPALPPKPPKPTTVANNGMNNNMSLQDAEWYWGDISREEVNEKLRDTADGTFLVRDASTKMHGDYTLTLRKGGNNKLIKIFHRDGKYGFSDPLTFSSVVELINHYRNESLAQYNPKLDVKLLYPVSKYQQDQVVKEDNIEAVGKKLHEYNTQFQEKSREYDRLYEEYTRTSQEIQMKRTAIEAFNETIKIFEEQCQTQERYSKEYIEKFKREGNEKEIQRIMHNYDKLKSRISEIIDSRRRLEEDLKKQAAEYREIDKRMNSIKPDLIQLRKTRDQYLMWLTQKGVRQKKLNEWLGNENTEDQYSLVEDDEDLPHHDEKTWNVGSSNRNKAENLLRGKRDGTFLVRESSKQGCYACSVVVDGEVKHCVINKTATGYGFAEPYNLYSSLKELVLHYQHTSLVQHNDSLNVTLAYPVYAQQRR
Experimental: (§1) PI3K catalyzes the conversion of phosphatidylinositol-4,5-bisphosphate (PIP2) and ATP to phosphatidylinositol-3,4,5-trisphosphate (PIP3) and ADP. For all assays, the reaction buffer comprised 50 mM HEPES, pH 7.5, 3 mM MgCl2, 1 mM EGTA, 100 mM NaCl, 0.03% CHAPS and 2 mM DTT. Compounds for testing were dissolved and serially diluted in 100% DMSO (total of 10 concentrations), then diluted 1:25 in reaction buffer.
(§2) PI3K alpha and PI3K delta enzymatic activity was determined by measuring the amount of ATP consumed following the kinase reaction using a luciferase-based luminescence assay (KinaseGlo®, Promega Corp., Madison, WI, USA). PI3K enzyme solutions were prepared by diluting PI3K alpha (Invitrogen Corp., Carlsbad, CA, USA) or PI3K delta (Millipore, Billerica, MA, USA) in reaction buffer, to 4× the final assay concentration (final concentrations of enzymes were 1.65 nM and 6.86 nM for PI3K alpha and PI3K delta, respectively). A substrate solution was prepared by mixing PIP2 and ATP in reaction buffer at 2× the final assay concentration (final concentrations were 50 μM and 25 μM for PIP2 and ATP respectively). 2.5 μL each of the compound and kinase mixtures were added to individual wells of white low volume 384-well assay plates and mixed by shaking. The reactions were started by adding 5 μL of substrate mixture per well and shaking. The assay plates were covered and reactions were allowed to proceed for 1 hour (PI3K alpha) or 2 hours (PI3K delta), after which 10 μL of Kinase Glo® reagent was added. The plates were briefly centrifuged and incubated for 10 minutes, after which luminescence was measured using a FlexStation plate reader (Molecular Devices, Sunnyvale, CA, USA). IC50 values were determined by curve fitting using Graphpad Prism software (Graphpad Software, La Jolla, CA, USA).

PI3K alpha = target: T2, PI3K alpha (Homo sapiens, UniProt P42336); assay: Luciferase-based luminescence assay (KinaseGlo), PI3K alpha enzymatic activity; conditions: inhibition of enzymatic activity, 25 μM ATP, read-out: IC50 p110α
T2 construct: purchased Invitrogen Corp., Carlsbad, CA, USA
T2 sequence (P42336 whole entry, species assumed): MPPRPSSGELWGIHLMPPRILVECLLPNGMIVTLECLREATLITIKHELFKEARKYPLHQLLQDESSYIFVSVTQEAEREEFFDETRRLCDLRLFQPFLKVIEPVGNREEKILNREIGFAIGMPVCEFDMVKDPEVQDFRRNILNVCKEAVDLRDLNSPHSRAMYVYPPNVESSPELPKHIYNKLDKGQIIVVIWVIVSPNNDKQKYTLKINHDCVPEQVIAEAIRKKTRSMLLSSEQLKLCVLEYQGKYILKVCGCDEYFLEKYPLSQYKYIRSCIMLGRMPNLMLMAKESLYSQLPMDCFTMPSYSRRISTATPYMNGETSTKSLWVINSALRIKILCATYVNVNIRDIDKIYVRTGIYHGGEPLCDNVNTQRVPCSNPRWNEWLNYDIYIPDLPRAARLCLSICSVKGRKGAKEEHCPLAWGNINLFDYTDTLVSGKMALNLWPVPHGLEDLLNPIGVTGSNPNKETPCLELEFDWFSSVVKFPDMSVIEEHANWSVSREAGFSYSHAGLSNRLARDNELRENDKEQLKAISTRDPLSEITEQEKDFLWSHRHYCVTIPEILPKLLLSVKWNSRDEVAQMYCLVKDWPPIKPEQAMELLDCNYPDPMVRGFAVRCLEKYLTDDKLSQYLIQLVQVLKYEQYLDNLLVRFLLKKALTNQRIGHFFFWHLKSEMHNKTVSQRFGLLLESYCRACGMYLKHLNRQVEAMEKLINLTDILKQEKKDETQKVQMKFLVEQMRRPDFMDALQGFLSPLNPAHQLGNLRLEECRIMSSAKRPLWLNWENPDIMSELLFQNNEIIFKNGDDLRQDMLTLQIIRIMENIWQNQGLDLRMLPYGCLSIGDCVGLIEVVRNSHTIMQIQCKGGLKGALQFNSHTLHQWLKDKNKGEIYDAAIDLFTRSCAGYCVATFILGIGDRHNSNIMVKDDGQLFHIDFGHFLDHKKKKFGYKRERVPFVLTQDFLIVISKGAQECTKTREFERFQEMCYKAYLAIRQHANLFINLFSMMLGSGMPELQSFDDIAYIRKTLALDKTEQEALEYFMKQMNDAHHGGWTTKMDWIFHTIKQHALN
T2 sequence (P27986 whole entry partner, species assumed): as the sequence (P27986 whole entry partner, species assumed) above
Experimental: as §1, §2

mTOR = mTOR (Homo sapiens, UniProt P42345); assay: mTOR inhibition (Table 1); conditions: Table 1, no method described

Compound	IC50 (PI3K delta)	α/δ ratio (PI3K delta)	IC50 (PI3K alpha)	IC50 (mTOR)
CC(C)(Nc1nc(N2CCOCC2)nc(-n2c(C(F)F)nc3ccccc32)n1)c1ccc(Cl)cc1 [Compound A8, N-(2-(4-chlorophenyl)propan-2-yl)-4-(2-(difluoromethyl)-1H-benzo[d]imidazol-1-yl)-6-morpholino-1,3,5-triazin-2-amine]	> 500 nM	C’	> 500 nM	–
COC(=O)[C@@H](Nc1nc(N2CCOCC2)nc(-n2c(C(F)F)nc3ccccc32)n1)c1ccccc1 [Compound A12, (S)-methyl 2-((4-(2-(difluoromethyl)-1H-benzo[d]imidazol-1-yl)-6-morpholino-1,3,5-triazin-2-yl)amino)-2-phenylacetate]	200 to 500 nM	D’	> 500 nM	–
CC(C)(Nc1nc(N2CCOCC2)nc(-n2c(C(F)F)nc3ccccc32)n1)c1ccc2ccccc2c1 [Compound A13, 4-(2-(difluoromethyl)-1H-benzo[d]imidazol-1-yl)-6-morpholino-N-(2-(naphthalen-2-yl)propan-2-yl)-1,3,5-triazin-2-amine]	> 500 nM	A’	> 500 nM	–
COC(=O)[C@H](Nc1nc(N2CCOCC2)nc(-n2c(C(F)F)nc3ccccc32)n1)c1ccccc1 [Compound A11, (R)-methyl 2-((4-(2-(difluoromethyl)-1H-benzo[d]imidazol-1-yl)-6-morpholino-1,3,5-triazin-2-yl)amino)-2-phenylacetate]	≤ 100 nM	D’	200 to 500 nM	–
CC(Nc1nc(N2CCOCC2)nc(-n2c(C(F)F)nc3ccccc32)n1)c1ccccc1 (centres unmarked) [Compound A1, 4-(2-(difluoromethyl)-1H-benzo[d]imidazol-1-yl)-6-morpholino-N-(1-phenylethyl)-1,3,5-triazin-2-amine]	≤ 100 nM	C’	> 500 nM	–
COc1ccc(C(C)(C)Nc2nc(N3CCOCC3)nc(-n3c(C(F)F)nc4ccccc43)n2)cc1 [Compound A9, 4-(2-(difluoromethyl)-1H-benzo[d]imidazol-1-yl)-N-(2-(4-methoxyphenyl)propan-2-yl)-6-morpholino-1,3,5-triazin-2-amine]	> 500 nM	D’	> 500 nM	–
CC[C@@H](Nc1nc(N2CCOCC2)nc(-n2c(C(F)F)nc3ccccc32)n1)c1ccccc1 [Compound A6, (R)-4-(2-(difluoromethyl)-1H-benzo[d]imidazol-1-yl)-6-morpholino-N-(1-phenylpropyl)-1,3,5-triazin-2-amine]	> 500 nM	B’	> 500 nM	–
C[C@@H](Nc1nc(N2CCOCC2)nc(-n2c(C(F)F)nc3ccccc32)n1)c1ccccc1 [Compound A3, (R)-4-(2-(difluoromethyl)-1H-benzo[d]imidazol-1-yl)-6-morpholino-N-(1-phenylethyl)-1,3,5-triazin-2-amine]	> 500 nM	D’	> 500 nM	–
CC(C)(Cc1ccccc1Br)Nc1nc(N2CCOCC2)nc(-n2c(C(F)F)nc3ccccc32)n1 [Compound A17, 4-(2-(difluoromethyl)-1H-benzo[d]imidazol-1-yl)-N-(1-(2-bromophenyl)-2-methylpropan-2-yl)-6-morpholino-1,3,5-triazin-2-amine]	–	–	> 500 nM	> 500 nM
FC(F)c1nc2ccccc2n1-c1nc(NCc2ccccc2)nc(N2CCOCC2)n1 [Ref 1, N-benzyl-4-(2-(difluoromethyl)-1H-benzo[d]imidazol-1-yl)-6-morpholino-1,3,5-triazin-2-amine, reference compound]	100 to 200 nM	D’	100 to 200 nM	–
